Reference: paper PMC10499603, “Polθ is phosphorylated by PLK1 to repair double-strand breaks in mitosis” (Nature, 2023)

Experiments:
Polθ foci in mitosis = assay: Polθ recruitment to DSBs in mitosis under PLK1 inhibition; format: cell-based, human; settings: wild-type Polθ expressing cells, PLK1i (Volasertib, 200 nM)
Experimental: (§1) Cells grown on coverslips were fixed for 15 min in 2% paraformaldehyde, permeabilized for 10 min in 0.5% Triton X-100, blocked for 30 min in BSA 5%, 0.1% Triton X-100, immunostained for 1 h with primary antibodies, 45 min with secondary antibodies (Highly Cross-Adsorbed Secondary Antibodies Alexa Fluor, ThermoFisher Scientific) and mounted Vectashield mounting medium containing DAPI (Vector Laboratories). The same protocol was applied to mitotic cells, which were collected by shake off and centrifuged onto glass slides using a cytospin centrifuge (400g, 5 min) before fixation. […] Biotin azide-EdU click-it reaction was performed after fixation and permeabilization by incubating cells with a mix of Picolyl biotin, CuSO4, THPTA (Jena Bioscience) and sodium ascorbate in PBS for 30 min in the dark followed by an incubation with streptavidin conjugated Alex fluor 647 antibody (ThermoFisher Scientific) during 1 h at room temperature. Images were taken at 60× or 100× magnification using Upright Spinning disk Confocal Microscope (Roper/Zeiss) or at 40× magnification using DeltaVision (Deconvolution) Image Restoration Microscope. All images were taken with a Z-stack of 0.4 μM on 8 μM range around focus and projected using maximum intensity projection. Images were analysed using the Fiji software. […] Images were mounted in SoftWoRx and analysed using the Fiji software (1.53c). […]

Polθ phosphorylation = assay: Label-free MS quantification of Polθ phospho-sites in mitotic HeLa GFP-Polθ cells; format: cell-based, Homo sapiens; settings: nocodazole 16 h, volasertib during last hour, IP 500 mM NaCl, five experiments
Experimental: For the identification of Polθ binding partners by mass spectrometry, Polθ immunoprecipitation was performed as described above in 5 mg of nuclear extract of HEK-293T NeonGreen-POLQ knock-in cells. Lysates were incubated with mNeonGreen-Trap Magnetic Agarose beads (Chromotek) for 2 h at 4 °C and beads were washed twice with 150 mM NaCl buffer, once with 300 mM NaCl and three times in 25 mM ammonium bicarbonate. Finally, beads were resuspended in 100 µl 25 mM ammonium bicarbonate and digested by adding 0.2 μg of trypsin/LysC (Promega) for 1 h at 37 °C. Samples were then loaded into custom-made C18 StageTips packed by stacking one AttractSPE disk (SPE-Disks-Bio-C18-100.47.20 Affinisep) and 2 mg beads (186004521 SepPak C18 Cartridge Waters) into a 200 µl micropipette tip for desalting. Peptides were eluted using a ratio of 40:60 MeCN:H2O + 0.1% formic acid and vacuum concentrated to dryness. Peptides were reconstituted in injection buffer (0.3% TFA) before liquid chromatography–tandem mass spectrometry (LC–MS/MS) analysis by using an RSLCnano system (Ultimate 3000, Thermo Scientific) coupled to an Orbitrap Exploris 480 mass spectrometer (Thermo Scientific) as described previously. Mass spectrometry analysis was performed on three independent experiments. NeonGreen-Trap Magnetic Agarose beads incubated in HEK native cell extracts were used as control. For Polθ phosphorylated sites identification by mass spectrometry, Hela cells expressing GFP–Polθ were blocked 16 h in nocodazole. DMSO or Volasertib was added during the last hour of nocodazole treatment. 5 mg of nuclear extract were incubated with GFP Trap Magnetic Agarose beads (Chromotek) for 2 h at 4 °C and beads were washed once with 150 mM NaCl buffer, twice with 300 mM NaCl and twice with 500 mM NaCl buffer. Finally, beads were resuspended in 100 µl 25 mM Ammonium bicarbonate and digested by adding 0.2 μg of trypsin/LysC (Promega) for 1 h at 37 °C. Samples were then desalted and peptides were reconstituted in injection buffer before LC–MS/MS analysis as described previously in the Polθ binding partners identification. Mass spectrometry analysis was performed on five independent experiments. GFP Trap Magnetic Agarose beads incubated in HeLa native cell extracts were used as controls. […] Beads were resuspended, digested and desalted, and then peptides were reconstituted in injections buffer before LC–MS/MS analysis, as described for Polθ binding partners identification and by using an Orbitrap Eclipse mass spectrometer. Mass spectrometry analysis was performed on five independent experiments. Pull-downs of streptavidin beads incubated in nuclear extract of HeLa cells were used as control.

mitotic end joining = assay: Mitotic end-joining repair assay (extrachromosomal substrate, qPCR); format: cell-based, human; settings: PLK1i (Volasertib, 200 nM), mitotic cells, substrate 150 ng, 1.5 h
From the text: To assess mitotic end-joining repair, a DNA repair substrate was designed to mimic resected DNA ends containing four microhomologies, as previously described. The repair substrate was built by ligating a PCR product (GFP sequence) to DNA oligonucleotide duplexes on both sides. The PCR product (747 bp) was amplified from a GFP sequence (PCAG vector, Addgene) using the following oligonucleotide sequences (Fwd core GFP: […], Rev core GFP: […]), digested by the BsaI-HF v2 enzyme (NEB) to reveal 4 nucleotides (nts) complementary to the DNA oligonucleotide duplexes and finally, purified (Gel and PCR cleanup kit Macherey-Nagel). In parallel, two oligonucleotide duplexes (1 and 2) with ~70 nts overhangs were made after annealing (95 °C 10 min, 25 °C 30 min) of the following oligonucleotides. Oligonucleotides for duplex 1 (17 nt dsDNA, 69 nt ssDNA): oligo 1-A, […]; oligo 1-B, […]. Oligonucleotides for duplex 2 (15 nt dsDNA, 71 nt ssDNA): oligo 2-A, […]; oligo 2-B: […]. […]
To measure DNA repair efficiency, a qPCR was performed both on the GFP sequence (to control for the DNA repair substrate transfection) as well as on potential end-joining repair products. Mitotic end-joining repair efficiency was calculated using ΔΔCt between GFP qPCR and end-joining qPCR using SYBR Green Master Mix (ThermoFisher Scientific).

mitotic BRCA2^−/− cells [1] = assay: Metaphase spreads, chromosomal abnormalities; format: cell-based, human; settings: Rucaparib, 1 h in mitosis
Experimental: Cells were blocked in G2 with RO3306 (5 μM) for 16 h, released, then blocked in mitosis by nocodazole and subsequently treated with Rucaparib for 1 h. After shake off, mitotic cells were centrifuged and subsequently resuspended in a pre-warmed hypotonic solution (0.075 M KCl) and maintained at 37 °C for 15 min. Cells were then centrifuged, and pellets were fixed in fresh methanol and stored at −20 °C. After metaphase spreading, air-dried slides were stained with a Gurr/Giemsa/Acetone solution (Gibco, 10582013; Giemsa (KaryoMAX Giemsa stain solution, Gibco, 10092013)) for 5 min and then rinsed twice with Gurr buffer. Slides were air-dried and neo-mounted with anhydrous mounting medium (Merck, 109016). Images were acquired at 100× magnification using DeltaVision (Deconvolution) Image Restoration Microscope.

BRCA2^−/− cells = assay: Clonogenic survival, BRCA2^−/−; format: cell-based, human; settings: Rucaparib 1 μM, 1 h in mitosis
Experimental: (§2) For mitotic cells: cells were blocked in G2 using RO3306 (5 μM), released, then blocked in mitosis by nocodazole and subsequently seeded for clonogenic survival. Polθ-mAID cells were blocked 4 h in RO3306 (5 μM) with or without IAA (500 μM) and released in nocodazole with or without IAA for 1 h. In the case of PARPi treatment, cells were blocked 16 h in RO3306 (5 μM) and released in nocodazole with or without Rucaparib (1 μM) for 1 h. After shake off, mitotic cells were washed twice with warm media, counted and seeded for clonogenic survival. For interphase cells: growing cells were treated with IAA (500 μM), or Rucaparib (1 μM) for indicated time, washed twice with warm media and counted. For clonogenic assay upon siRNA transfection, 150,000 cells were plated per well of a 6-well plate and transfected the same day with indicated siRNA. The day after, cells were washed twice, counted and seeded for clonogenic survival. For each condition, two concentrations of cells (BRCA2^−/− cells: 500 and 2000 cells; wild-type cells: 50 and 150 cells) were seeded per well of a 6-well plate. Finally, 10 to 14 days after seeding, colonies were stained with blue methylene (Sigma, 1808) for 2 h at room temperature, washed in water, air-dried overnight and scored manually.

wild-type cells = assay: Clonogenic survival, wild-type; format: cell-based, human; settings: Rucaparib 1 μM, 1 h in mitosis
Experimental: as §2

mitotic BRCA2^−/− cells [2] = assay: γH2AX / DSB formation in mitotic cells; format: cell-based, human; settings: Rucaparib 1 μM, 1 h in mitosis
Experimental: Cells grown on coverslips were fixed for 15 min in 2% paraformaldehyde, permeabilized for 10 min in 0.5% Triton X-100, blocked for 30 min in BSA 5%, 0.1% Triton X-100, immunostained for 1 h with primary antibodies, 45 min with secondary antibodies (Highly Cross-Adsorbed Secondary Antibodies Alexa Fluor, ThermoFisher Scientific) and mounted Vectashield mounting medium containing DAPI (Vector Laboratories). The same protocol was applied to mitotic cells, which were collected by shake off and centrifuged onto glass slides using a cytospin centrifuge (400g, 5 min) before fixation. […] Biotin azide-EdU click-it reaction was performed after fixation and permeabilization by incubating cells with a mix of Picolyl biotin, CuSO4, THPTA (Jena Bioscience) and sodium ascorbate in PBS for 30 min in the dark followed by an incubation with streptavidin conjugated Alex fluor 647 antibody (ThermoFisher Scientific) during 1 h at room temperature. Images were taken at 60× or 100× magnification using Upright Spinning disk Confocal Microscope (Roper/Zeiss) or at 40× magnification using DeltaVision (Deconvolution) Image Restoration Microscope. All images were taken with a Z-stack of 0.4 μM on 8 μM range around focus and projected using maximum intensity projection. Images were analysed using the Fiji software. All scale bars represent 5 μm unless stated otherwise.

[3] = test system: Polθ recruitment to mitotic DSBs; assay: Polθ recruitment to laser microirradiated stripes in mitosis; format: cell-based, human; settings: PARPi (Rucaparib), laser microirradiation
Experimental: Laser micro-irradiation was performed with a two-photon Ti:Saphire laser (Mai Tai DeepSee, Spectra Physics) at 800 nm with 20% power (from 2.1 W) on an inverted laser scanning confocal microscope equipped with spectral detection and a multi-photon laser (LSM880NLO/Mai Tai Laser, Zeiss, Spectra Physics), using a 40× objective NA1.3 oil DICII PL APO (420852-9870). Images were analysed using the ‘plot Z-axis profile’ function of Fiji (version 2.1.0/1.53c). X-ray irradiations were performed using the CIXD Dual Irradiator (RadeXp platform, Institut Curie).

Polθ nuclear bodies = Polθ nuclear bodies in G1 after siRNA; format: cell-based, human; settings: siRNA knockdown, G1 cells
Experimental: Transfection of siRNA oligonucleotides (Eurofins) was performed using Lipofectamine RNAiMax (ThermoFisher Scientific) following the manufacturer’s instructions.
Cells grown on coverslips were fixed for 15 min in 2% paraformaldehyde, permeabilized for 10 min in 0.5% Triton X-100, blocked for 30 min in BSA 5%, 0.1% Triton X-100, immunostained for 1 h with primary antibodies, 45 min with secondary antibodies (Highly Cross-Adsorbed Secondary Antibodies Alexa Fluor, ThermoFisher Scientific) and mounted Vectashield mounting medium containing DAPI (Vector Laboratories). The same protocol was applied to mitotic cells, which were collected by shake off and centrifuged onto glass slides using a cytospin centrifuge (400g, 5 min) before fixation. […] Biotin azide-EdU click-it reaction was performed after fixation and permeabilization by incubating cells with a mix of Picolyl biotin, CuSO4, THPTA (Jena Bioscience) and sodium ascorbate in PBS for 30 min in the dark followed by an incubation with streptavidin conjugated Alex fluor 647 antibody (ThermoFisher Scientific) during 1 h at room temperature. Images were taken at 60× or 100× magnification using Upright Spinning disk Confocal Microscope (Roper/Zeiss) or at 40× magnification using DeltaVision (Deconvolution) Image Restoration Microscope. […] Images were analysed using the Fiji software. […]

[4] = test system: Polθ foci in G2, wild-type cells; assay: Polθ foci in G2; format: cell-based, human; settings: aphidicolin 0.4 to 1.6 μM
Experimental: as §1

## CC[C@@H]1C(=O)N(C)c2cnc(Nc3ccc(C(=O)N[C@H]4CC[C@H](N5CCN(CC6CC6)CC5)CC4)cc3OC)nc2N1C(C)C [Volasertib]
Polθ foci in mitosis
  Polθ recruitment to DSBs in mitosis: neither mutant was recruited to DSBs in mitosis (Fig. 3f, Extended Data Fig. 8a and Supplementary Video 4), similar to our observations in wild-type Polθ expressing cells under PLK1 inhibition
Polθ phosphorylation
  Ratio Nocodazole / Volacertib, phospho-site S1628.S1639: 5.418
Polθ phosphorylation; adj. p 0.00104923
  Ratio Nocodazole / Volacertib, phospho-site S1594: 1.901
Polθ phosphorylation; adj. p 0.0536125, * only re-extracted peptides by MBR
  Ratio Nocodazole / Volacertib, phospho-site S1094*: 1.958
Polθ phosphorylation; adj. p 0.0634598
  Ratio Nocodazole / Volacertib, phospho-site T1755: 3.242
Polθ phosphorylation; adj. p 0.115005, * only re-extracted peptides by MBR
  Ratio Nocodazole / Volacertib, phospho-site S1436*: 1.887
Polθ phosphorylation; adj. p 0.400471
  Ratio Nocodazole / Volacertib, phospho-site S1289: 3.904
Mitotic end joining
  efficiency of mitotic end joining: greatly impaired the efficiency of mitotic end joining

## CNCc1ccc(-c2[nH]c3cc(F)cc4c3c2CCNC4=O)cc1 [Rucaparib]
Mitotic BRCA2^−/− cells [1]
  chromosomal abnormalities (breaks and radials): induced the formation of DSBs and chromosomal abnormalities
BRCA2^−/− cells
  clonogenic survival / cell killing: sufficient to kill BRCA2^−/−
wild-type cells
  clonogenic survival / cell killing: sufficient to kill BRCA2^−/− but not wild-type cells
Mitotic BRCA2^−/− cells [2]
  DSB formation in mitosis: induced the formation of DSBs
[3]
  Polθ recruitment to mitotic DSBs: abolished

## CAGGACAGUCUUUCCACGAdTdT (sense CAGGACAGUCUUUCCACGATT; chemistry not fully specified) [53BP1, siRNA targeting 53BP1]
Polθ nuclear bodies
  Polθ nuclear body formation: increased Polθ nuclear body formation

## C[C@@]1(CO)[C@H](O)CC[C@@]2(C)[C@H]1CC[C@H]1C[C@@H]3C[C@@]12CC[C@]3(O)CO [aphidicolin, Aphidicolin]
[4]
  Polθ foci in G2: Polθ foci in G2 could be induced by replication stress (aphidicolin treatment) in wild-type cells, to the level of that in BRCA2^−/− cells
